pIC50: −log10 of the molar value.
Legend:
[1] = tested on: U266 cells; test: U266 cell viability (Axenin V method) and cell counts; format: cell-based, human
Method: The U266 cells were incubated in the presence of the noted concentrations of ELP-004, and the viability of the cells was determined at the indicated times using the Axenin V method.
Initial treatment with N-methyl dichloropropionaniline (N-MeDCPA, ELP-004) was examined. The N-MeDCPA was designed and synthesized and tested in laboratory experiments. A treatment scheme with plated cells was devised using N-MeDCPA as compared to a DMSO vehicle only, along with 100 μM and 200 μM dosages on U266 cell samples. U266 is a B lymphocyte isolated from the peripheral blood of a patient with myeloma and is commonly used in immune system disorder research and immunology research. The cells were allowed to incubate then counted under a 10× lens.
As may be seen in FIG. 1, the growth curve of cell samples as treated with the varying concentrations versus a DMSO vehicle can be observed. The number of cells per milliliter was calculated after examination and counting under the lens.
The effect of ELP-004 (i.e. N-MeDCPA) on […] (a myeloma cell line) proliferation is described above.

[2] = tested on: osteoclasts differentiated from Murine BMSMCs; test: matrix resorption (pit formation) on Osteo-Assay surface plates; format: cell-based; details: irrespective of conditions, days 7, 14, 21
Method: Murine BMSMCs were differentiated to form osteoclasts on Osteo-Assay surface plates. The sizes of pits formed by the resorptive activity of osteoclasts differentiated under the three conditions were analyzed at days 7, 14, and 21. Average pit sizes of 10-30 pits are shown.

[3] = tested on: Murine BMSMCs; test: LTB4-induced osteoclast fusion (TRAP, multinucleation, marker mRNA); format: cell-based; details: RANKL/LTB4
Method: FIGS. 6A-C show ELP-004 blocking LTB4-induced Osteoclast Fusion. (A-C) Murine BMSMCs were grown for up to 21 days in media supplemented with 50 ng/ml m-CSF, 1 ng/ml RANKL and 50 nM LTB4. Each experiment was repeated a minimum of three times. Cells were fixed and stained for Tartrate Resistant Acid Phosphatase (TRAP) activity at days 1, 7, 14 and 21. In schematic A, the number of TRAP positive osteoclast-like cells (out of 100 cells) were counted for each time point; TRAP intensity was also calculated. In schematic B, at each time point, the number of nuclei for each cell was counted and the average number of nuclei per cell for 100 cells is shown. In schematic C, mRNA expression of osteoclast markers such as TRAP5, VATPASE A3, VATPASE D2 and Calcitonin Receptor (CALCR) were measured at days 7 and 14 for both control and treated cells by RT-PCR. […] The expression patterns of osteoclast markers was unaffected by ELP-004, indicating selective inhibition of specific features of osteoclastogenesis.

[4] = tested on: CYP enzymes; test: induction of CYP enzymes; format: in vitro ADME

CCC(=O)N(C)c1ccc(Cl)c(Cl)c1 [ELP-004, N-(3,4-dichlorophenyl)-N-methylpropanamide]
pIC50 ([1]; Homo sapiens, U-266, U266 cells, viability by Axenin V method, calculated using two methods): 3.81
myeloma cell proliferation ([1]; U66 (U266) myeloma cell line): inhibits myeloma cell proliferation
matrix resorption activity of osteoclasts [2]: No resorption was observed
TRAP activity [3]: completed abrogated
expression patterns of osteoclast markers [3]: unaffected
multinucleation [3]: severely attenuated
effect on induction of CYP enzymes [4]: no deleterious effect
